Source: US10647671B2, “Promysalin analogues and methods of use thereof” (Temple University—Of The Commonwealth System of Higher …, priority 2016, dated 2020)
Like-named read-outs stand apart in the source and are kept apart here.

Legend:
[1] = tested on: P. aeruginosa strains PAO1 and PA14; assay: Inhibitory activity against P. aeruginosa, strain not separated in text; assay type: cell-based, Pseudomonas aeruginosa; details: for inhibitory activity against P. aeruginosa, in words (SAR): compared with promysalin; for IC50: Pseudomonas aeruginosa, PAO1 and PA14, read-out: IC50 / inactive up to concentration
Description: (§1) P. aeruginosa PA01, and PA14 were gifts from Prof. George O'Toole (Dartmouth Medical School). Bacterial cultures were grown from freezer stocks overnight (16-24 hr) with shaking at 37° C. in Tryptic Soy Broth (TSB) media (10 mL). Growth curves were obtained for PA01 and PA14 to determine the OD of each strain in exponential growth; OD readings at 595 nm were taken every 10 minutes for 6 hours in a plate reader at 37° C. with shaking and repeated six times. (see FIGS. 6A and 6B)
(§2) Compounds were serially diluted in sterile DI water from a stock solution (1 mM in 10% DMSO/90% H2O) to yield twenty-four test concentrations. Overnight cultures were diluted 1:100 in 5 mL fresh media and grown with shaking at 37° C. to an OD of 0.32 (see growth curves). Bacteria were diluted to a concentration of 0.004 using the following equation: (x μL O/N)(OD reading)=(0.004)(volume needed) and 100 μL was inoculated into each well of a flat-bottom 96-well plate (Corning 3370) containing 100 μL of compound solution. Plates were incubated statically at 37° C. for 24 hours, upon which time the OD at 595 nm was measured using a plate reader. IC50 values were calculated by fitting the OD readings vs. concentration with a 4 parameter logistic model. Controls were prepared by serially diluting a 10% DMSO/90% H2O the same as the compound stock solution. Compounds were tested in triplicate from separate O/N cultures and results averaged.
With a library of sixteen analogs in hand, all of the compounds were evaluated for inhibitory activity against P. aeruginosa strains PAO1 and PA14. […] The inhibition data supported our initial hypothesis that the conformation of promysalin is exquisitely linked to its inhibition of PA. Of our modifications to the proline structure, fluorination (9)—being the smallest steric perturbation, was the only compound with equipotency to that of promysalin.

P. aeruginosa PA14 = assay: IC50 assay (OD595, 24 h) against PA14; assay type: cell-based, Pseudomonas aeruginosa; details: for IC50: Pseudomonas aeruginosa
Description: as §1, §2
Compounds were serially diluted in sterile DI water from a stock solution (10% DMSO/H2O) yielding 24 test concentrations. Bacteria were diluted to a final concentration of 0.004 from regrown overnight culture according to the following equation: (xμL bacterial culture)(OD reading)=(0.004)(total volume needed) and 100 μL was inoculated into each well of a flat-bottom 96-well plate (Corning 3370) containing 100 μL of compound solution. Plates were incubated statically at 37° C. for 24 hours upon which time OD at 595 nm was measured using a plate reader (Spectra Max 190). IC50 values were calculated using OD values and concentrations with a 4-parameter logistic model. Control experiments used a 10% DMSO/H2O stock serially diluted to the same 24 concentrations. Compounds were tested in triplicate from three independent overnight cultures.

P. aeruginosa PA01 = assay: IC50 assay (OD595, 24 h) against PA01; assay type: cell-based; details: Pseudomonas aeruginosa
Description: P. aeruginosa PA01, and PA14 were gifts from Prof. George O'Toole (Dartmouth Medical School). Bacterial cultures were grown from freezer stocks overnight (16-24 hr) with shaking at 37° C. in Tryptic Soy Broth (TSB) media (10 mL). Growth curves were obtained for PA01 and PA14 to determine the OD of each strain in exponential growth; OD readings at 595 nm were taken every 10 minutes for 6 hours in a plate reader at 37° C. with shaking and repeated six times. (see FIGS. 6A and 6B) Compounds were serially diluted in sterile DI water from a stock solution (1 mM in 10% DMSO/90% H2O) to yield twenty-four test concentrations. Overnight cultures were diluted 1:100 in 5 mL fresh media and grown with shaking at 37° C. to an OD of 0.32 (see growth curves). Bacteria were diluted to a concentration of 0.004 using the following equation: (x μL O/N)(OD reading)=(0.004)(volume needed) and 100 μL was inoculated into each well of a flat-bottom 96-well plate (Corning 3370) containing 100 μL of compound solution. Plates were incubated statically at 37° C. for 24 hours, upon which time the OD at 595 nm was measured using a plate reader. IC50 values were calculated by fitting the OD readings vs. concentration with a 4 parameter logistic model. Controls were prepared by serially diluting a 10% DMSO/90% H2O the same as the compound stock solution. Compounds were tested in triplicate from separate O/N cultures and results averaged.

[2] = average of EXPT 1-3, read-out: IC50 PA14 AVG
[3] = averages of three independent experiments, read-out: IC50 PA14
[4] = single trial 1, read-out: IC50 PA14 EXPT 1
[5] = single trial 2, read-out: IC50 PA14 EXPT 2
[6] = average of EXPT 1-3, read-out: IC50 PA01 AVG
[7] = averages of three independent experiments, read-out: IC50 PA01
[8] = single trial 1, read-out: IC50 PA01 EXPT 1
[9] = single trial 2, read-out: IC50 PA01 EXPT 2
[10] = single trial 3, read-out: IC50 PA01 EXPT 3
[11] = single trial 3, read-out: IC50 PA14 EXPT 3

## CCCCCC[C@H](CCCCC[C@@H](O)C(N)=O)OC(=O)[C@@H]1CCCCN1C(=O)c1ccccc1O [compound 7, (1R,7R)-1-carbamoyl-1-hydroxytridecan-7-yl (2S)-1-(2-hydroxybenzoyl)piperidine-2-carboxylate]
[1]
  inhibitory activity against P. aeruginosa, in words (SAR): inactive

## CCCCCC[C@H](CCCCC[C@@H](O)C(N)=O)OC(=O)[C@@H]1CC=CN1C(=O)c1c(O)cccc1OC [compound 15, (7R,13R)-14-amino-13-hydroxy-14-oxotetradecan-7-yl (S)-1-(2-hydroxy-6-methoxybenzoyl)-2,3-dihydro-1H-pyrrole-2-carboxylate]
[1]
  inhibitory activity against P. aeruginosa, in words (SAR): not tolerated

## CCCCCC[C@H](CCCCC[C@@H](O)C(N)=O)OC(=O)[C@@H]1C[C@@H](O)CN1C(=O)c1ccccc1O [compound 8, (1R,7R)-1-carbamoyl-1-hydroxytridecan-7-yl (2S,4R)-4-hydroxy-1-(2-hydroxybenzoyl)pyrrolidine-2-carboxylate]
[1]
  inhibitory activity against P. aeruginosa, in words (SAR): inactive

## CCCCCC[C@H](CCCCCCC(N)=O)OC(=O)[C@@H]1CC=CN1C(=O)c1ccccc1O [compound 18, (R)-14-amino-14-oxotetradecan-7-yl (S)-1-(2-hydroxybenzoyl)-2,3-dihydro-1H-pyrrole-2-carboxylate]
P. aeruginosa PA14; [2]
  IC50: 0.035 µM
P. aeruginosa PA14; [3]
  IC50: 0.035 µM
P. aeruginosa PA14; [4]
  IC50: 0.02 µM
P. aeruginosa PA14; [5]
  IC50: 0.09 µM
[1]
  inhibitory activity against P. aeruginosa, in words (SAR): fully retained
P. aeruginosa PA01; [6]
  IC50: 5.85 µM
P. aeruginosa PA01; [7]
  IC50: 5.8 µM
P. aeruginosa PA01; [8]
  IC50: 4.78 µM
P. aeruginosa PA01; [9]
  IC50: 5.64 µM
P. aeruginosa PA01; [10]
  IC50: 7.12 µM

## CCCCCC[C@H](CCCCC[C@@H](O)C(N)=O)OC(=O)[C@@H]1CC=CN1C(=O)c1ccccc1[N+](=O)[O-] [compound 17, (7R,13R)-14-amino-13-hydroxy-14-oxotetradecan-7-yl (S)-1-(2-nitrobenzoyl)-2,3-dihydro-1H-pyrrole-2-carboxylate]
[1]
  inhibitory activity against P. aeruginosa, in words (SAR): largely unforgiving

## CCCCCC[C@H](C/C=C/CC[C@@H](O)C(N)=O)OC(=O)[C@@H]1CC=CN1C(=O)c1ccccc1O [compound 21, (7R,13R,E)-14-amino-13-hydroxy-14-oxotetradec-9-en-7-yl (S)-1-(2-hydroxybenzoyl)-2,3-dihydro-1H-pyrrole-2-carboxylate]
P. aeruginosa PA14; [2]
  IC50: 0.067 µM
P. aeruginosa PA14; [3]
  IC50: 0.067 µM
P. aeruginosa PA14; [4]
  IC50: 0.12 µM
P. aeruginosa PA14; [5]
  IC50: 0.05 µM
P. aeruginosa PA14; [11]
  IC50: 0.03 µM
[1]
  inhibitory activity against P. aeruginosa, in words (SAR): equipotent
P. aeruginosa PA01; [6]
  IC50: 8.34 µM
P. aeruginosa PA01; [7]
  IC50: 8.3 µM
P. aeruginosa PA01; [8]
  IC50: 10.1 µM
P. aeruginosa PA01; [9]
  IC50: 8.07 µM
P. aeruginosa PA01; [10]
  IC50: 6.81 µM

## CCCCCC[C@H](CCCCC[C@@H](O)C(N)=O)OC(=O)[C@@H]1CC=CN1C(=O)c1ccccc1 [compound 14, (1R,7R)-1-carbamoyl-1-hydroxytridecan-7-yl (2S)-1-benzoyl-2,3-dihydro-1H-pyrrole-2-carboxylate]
[1]
  inhibitory activity against P. aeruginosa, in words (SAR): largely unforgiving

## COC(=O)[C@@H]1CC=CN1C(=O)c1ccccc1O [compound 5, Methyl (2S)-1-(2-hydroxybenzoyl)-2,3-dihydro-1H-pyrrole-2-carboxylate]
[1]
  IC50: > 250 µM

## CCCCCC[C@H](CCCCC[C@@H](O)C(N)=O)OC(=O)[C@@H]1CC(F)=CN1C(=O)c1ccccc1O [compound 9, (7R,13R)-14-amino-13-hydroxy-14-oxotetradecan-7-yl (S)-4-fluoro-1-(2-hydroxybenzoyl)-2,3-dihydro-1H-pyrrole-2-carboxylate]
P. aeruginosa PA14; [2]
  IC50: 0.019 µM
P. aeruginosa PA14; [3]
  IC50: 0.019 µM
P. aeruginosa PA14; [4]
  IC50: 0.04 µM
P. aeruginosa PA14; [5]
  IC50: 0.01 µM
P. aeruginosa PA14; [11]
  IC50: 0.01 µM
[1]
  inhibitory activity against P. aeruginosa, in words (SAR): equipotency
P. aeruginosa PA01; [6]
  IC50: 7.7 µM
P. aeruginosa PA01; [7]
  IC50: 7.7 µM
P. aeruginosa PA01; [8]
  IC50: 8.11 µM
P. aeruginosa PA01; [9]
  IC50: 8.57 µM
P. aeruginosa PA01; [10]
  IC50: 6.41 µM

## CCCCCC[C@H](CCCCC[C@@H](O)C(N)=O)OC(=O)[C@@H]1CC[C@H]2Oc3ccccc3C(=O)N21 (single isomer, unassigned) [2b]
[1]
  inhibitory activity against P. aeruginosa, in words (SAR): no biological activity

## C#CCCC1(CCNC(=O)[C@H](O)CCCCC[C@@H](CCCCCC)OC(=O)[C@@H]2CC=CN2C(=O)c2ccccc2)N=N1 [(−)-S12, (7R,13R)-14-((2-(3-(but-3-yn-1-yl)-3H-diazirin-3-yl)ethyl)amino)-13-hydroxy-14-oxotetradecan-7-yl (S)-1-benzoyl-2,3-dihydro-1H-pyrrole-2-carboxylate]
[1]
  inhibitory activity against P. aeruginosa, in words (SAR): inactive

## CCCCCC[C@H](CCCCC[C@@H](O)C(N)=O)OC(=O)[C@@H]1CC=CN1C(=O)c1ccc(O)cc1 [compound 13, (1R,7R)-1-carbamoyl-1-hydroxytridecan-7-yl (2S)-1-(4-hydroxybenzoyl)-2,3-dihydro-1H-pyrrole-2-carboxylate]
[1]
  inhibitory activity against P. aeruginosa, in words (SAR): largely unforgiving

## C#CCCC1(CCNC(=O)[C@H](O)CCCCC[C@@H](CCCCCC)OC(=O)[C@@H]2CC=CN2C(=O)c2ccccc2O)N=N1 [(−)-2, (7R,13R)-14-((2-(3-(but-3-yn-1-yl)-3H-diazirin-3-yl)ethyl)amino)-13-hydroxy-14-oxotetradecan-7-yl (S)-1-(2-hydroxybenzoyl)-2,3-dihydro-1H-pyrrole-2-carboxylate]
P. aeruginosa PA14; read-out: IC50 in PA14
  IC50: 1.7 µM
[1]
  less active than promysalin: ~10 ×

## CCCCCC[C@H](CCCCC[C@@H](O)C(N)=O)OC(=O)[C@@H]1CC[C@@H]2Oc3ccccc3C(=O)N21 (single isomer, unassigned) [2a]
[1]
  inhibitory activity against P. aeruginosa, in words (SAR): no biological activity

## CCCCCC[C@H](CCCCC[C@@H](O)C(N)=O)OC(=O)[C@@H]1CC=CN1C(=O)c1cc(OC)c(OC)c(OC)c1 [compound 16, (1R,7R)-1-carbamoyl-1-hydroxytridecan-7-yl (2S)-1-(3,4,5-trimethoxybenzoyl)-2,3-dihydro-1H-pyrrole-2-carboxylate]
[1]
  inhibitory activity against P. aeruginosa, in words (SAR): not tolerated

## CCCCCC[C@@H](O)CCCCC[C@@H](O)C(N)=O [compound 4, (2R,8R)-2,8-dihydroxytetradecanamide]
[1]
  IC50: > 250 µM

## C#CCNC(=O)[C@H](O)CCCCC[C@@H](CCCCCC)OC(=O)[C@@H]1CC=CN1C(=O)c1ccccc1O [(−)-S4, (7R,13R)-13-hydroxy-14-oxo-14-(prop-2-yn-1-ylamino)tetradecan-7-yl (S)-1-(2-hydroxybenzoyl)-2,3-dihydro-1H-pyrrole-2-carboxylate]
P. aeruginosa PA14
  activity relative to the natural product: three-fold less active
P. aeruginosa PA14; preliminary screening for probe design, read-out: IC50 in PA14
  IC50: 0.218 µM

## CCCCCC[C@H](CCCCC[C@@H](O)C(N)=O)OC(=O)[C@@H]1CC=CN1C(=O)c1cccc(O)c1 [compound 12, (7R,13R)-14-amino-13-hydroxy-14-oxotetradecan-7-yl (S)-1-(3-hydroxybenzoyl)-2,3-dihydro-1H-pyrrole-2-carboxylate]
[1]
  inhibitory activity against P. aeruginosa, in words (SAR): largely unforgiving
